Structures are written as SMILES.

The assay is described as follows: Inhibition of human CCR6 expressed in CHO cells assessed as decrease in human CCL20-dependent cell migration incubated for 4 hrs by Diff-Quik staining based assay.

Regarding `Cc1ccc(S(=O)(=O)N2CCC(Nc3ccc(C#N)cn3)CC2)cc1`, the IC50 (as a rule, the concentration at which inhibition is half-maximal) is 1400 nM.

On to `N#Cc1ccc(NC2CCN(S(=O)(=O)c3ccc(-c4ccccc4)cc3)CC2)nc1`, for which the IC50 came out at 240 nM.
